Data on 28 compounds can be found in US20260232666A1, “COMPOSITIONS AND METHODS FOR INHIBITION OF RAS” (TheRas, Inc., priority 2023, published 2026).

For one assay, the system named is pERK in NCI-H358 cells. In words: Cell-based pERK HTRF assay (pERK inhibition in H358 cells). As to conditions: 30 min incubation. The gist of the method:
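NCI-H358 cells were seeded at 4×10^4 cells/well in RPMI/10% FBS, then treated next day for 30 min at 0.25% DMSO (9-point, 3-fold series from 75 μM). Lysates were read by HTRF (d2/Eu cryptate antibody pair, 615 nm emission) after 4–24 h at room temperature to give pERK IC50.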
In general terms: In TR-FRET formats the signal depends on donor and acceptor labels being close together.

The target of assay [1] is T1, GppNHp-loaded KRAS4b (amino acids 1-169) G12C/C118S protein (Homo sapiens, UniProt P01116, C118S/G12C).
T1 construct: KRAS4b (amino acids 1-169) G12C/C118S protein; made in house
Put plainly: Covalent cysteine 12 modification by MALDI-TOF MS, GppNHp-loaded KRAS G12C. In kind it is binding. As to conditions: 15 minutes reaction time point. The gist of the method:
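Percent modification comes from MALDI-TOF peak heights: the compound-adduct peak divided by the sum of the remaining-protein and adduct peaks. Reactions contained 1 μM protein and compound at a 1:2.5 ratio, in pH 7.3 HEPES buffer with NaCl and MgCl2, held 15 min at room temperature.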

Molecules are shown by their SMILES. Some results are limits rather than exact numbers.

The IC50 is the concentration at which inhibition is half-maximal. Low values mean greater potency in that assay, high ones weaker potency in that assay.

In the case of `C=CC(=O)N1C[C@H](C)N(c2nc(OC[C@@]34CCCN3C[C@H](F)C4)nc3c(F)c(-c4ccc(F)c5sc(N)c(C#N)c45)c(Cl)cc23)C[C@H]1C` (atropisomer, axis not shown) [Compound 102], the IC50 in the assay with pERK in NCI-H358 cells (Homo sapiens, NCI-H358, 0.5 h) is under 100 nM. Also, the “GppNHp-KRAS G12C percent of modification” value in assay [1] is listed as “A (percent of modification ≥70%)”.
`C=CC(=O)N1C[C@H](C)N(c2nc(OC[C@@]34CCCN3C[C@H](F)C4)nc3c(F)c(-c4ccc(F)c5sc(N)c(C#N)c45)c(Cl)cc23)C[C@H]1C` (atropisomer, axis not shown) [Compound 103]: in the assay on pERK in NCI-H358 cells, the 50% inhibitory concentration (IC50) fell in the range of 100 to 1000 nM. The “GppNHp-KRAS G12C percent of modification” value in assay [1] was “D (percent of modification <10%)”.
`C=CC(=O)N1CC[C@@H](N(C)c2nc(OC[C@@H]3CC4(CC4)CN3C)nc3c(F)c(-c4ccc(F)c5sc(N)c(C#N)c45)c(C(F)(F)F)cc23)[C@@H]1C` (atropisomer, axis not shown) [Compound 111] gave an IC50 in the assay with pERK in NCI-H358 cells (Homo sapiens, NCI-H358, 0.5 h) of under 100 nM. Further, the “GppNHp-KRAS G12C percent of modification” value in assay [1] was “A (percent of modification ≥70%)”.
`C=CC(=O)N1CC[C@@H](N(CC)c2nc(OC[C@@H]3C[C@@H](F)CN3C)nc3c(F)c(-c4ccc(F)c5sc(N)c(C#N)c45)c(C(F)(F)F)cc23)[C@H]1C` (atropisomer, axis not shown) [Compound 113] had an IC50 in the assay with pERK in NCI-H358 cells of under 100 nM. Moreover, the “GppNHp-KRAS G12C percent of modification” value in assay [1] is given as “A (percent of modification ≥70%)”.
`C=CC(=O)N1CC[C@@H](N(CC)c2nc(OC[C@@H]3C[C@@H](F)CN3C)nc3c(F)c(-c4ccc(F)c5sc(N)c(C#N)c45)c(C(F)(F)F)cc23)[C@H]1C` (atropisomer, axis not shown) [Compound 114]: the IC50 with pERK in NCI-H358 cells was over 1000 nM. Further, in assay [1], the “GppNHp-KRAS G12C percent of modification” value is “D (percent of modification <10%)”.
Taken in the same sequence, the figures for `C=CC(=O)N1CC[C@@H](N(C)c2nc(OC[C@@H]3CCCN3C)nc3c(F)c(-c4ccc(F)c5sc(N)c(C#N)c45)c(Cl)cc23)[C@H]1C` (atropisomer, axis not shown) [Compound 118] were under 100 nM and “A (percent of modification ≥70%)”.
Taken in the same sequence, the figures for `C=CC(=O)N1CC[C@@H](N(C)c2nc(OC[C@@H]3CCCN3C)nc3c(F)c(-c4ccc(F)c5sc(N)c(C#N)c45)c(Cl)cc23)[C@H]1C` (atropisomer, axis not shown) [Compound 119] were over 1000 nM and “D (percent of modification <10%)”.
The matching figures for `C=CC(=O)N1CC[C@@H](N(CC)c2nc(OC[C@@H]3CC4(CC4)CN3C)nc3c(F)c(-c4ccc(F)c5sc(N)c(C#N)c45)c(Cl)cc23)[C@H]1C` (atropisomer, axis not shown) [Compound 120]: under 100 nM and “A (percent of modification ≥70%)”.
For `C=CC(=O)N1CC[C@@H](N(CC)c2nc(OC[C@@H]3CC4(CC4)CN3C)nc3c(F)c(-c4ccc(F)c5sc(N)c(C#N)c45)c(Cl)cc23)[C@H]1C` (atropisomer, axis not shown) [Compound 121], the concentration for half-maximal inhibition (IC50) in the assay with pERK in NCI-H358 cells was over 1000 nM. For the same compound, the “GppNHp-KRAS G12C percent of modification” value in assay [1] is listed as “D (percent of modification <10%)”.
Taken in the same sequence, the figures for `C=CC(=O)N1CC[C@@H](N(C)c2nc(OC[C@@H]3CCCN3C)nc3c(F)c(-c4ccc(F)c5sc(N)c(C#N)c45)c(C(F)(F)F)cc23)[C@H]1C` (atropisomer, axis not shown) [Compound 131] were under 100 nM and “A (percent of modification ≥70%)”.
Consider `C=CC(=O)N1CC[C@@H](N(C)c2nc(OC[C@@H]3CCCN3C)nc3c(F)c(-c4ccc(F)c5sc(N)c(C#N)c45)c(C(F)(F)F)cc23)[C@H]1C` (atropisomer, axis not shown) [Compound 132], for which the IC50 in the assay with pERK in NCI-H358 cells was over 1000 nM. In addition, the “GppNHp-KRAS G12C percent of modification” value in assay [1] is reported as “D (percent of modification <10%)”.
`C=CC(=O)N1CC[C@H](N(CC)c2nc(OC[C@@]34CCCN3C[C@H](F)C4)nc3c(F)c(-c4ccc(F)c5sc(N)c(C#N)c45)c(C(F)(F)F)cc23)C1` (atropisomer, axis not shown) [Compound 171]: the IC50 in the assay with pERK in NCI-H358 cells (Homo sapiens, NCI-H358, 0.5 h) was under 100 nM. In addition, the “GppNHp-KRAS G12C percent of modification” value in assay [1] was “C (10%≤percent of modification <50%)”.
`C=CC(=O)N1C[C@H](N(C)c2nc(OC[C@@]34CCCN3C[C@H](F)C4)nc3c(F)c(-c4ccc(F)c5sc(N)c(C#N)c45)c(C(F)(F)F)cc23)C[C@H]1C` (atropisomer, axis not shown) [Compound 176] came in with a half-inhibitory concentration (IC50) with pERK in NCI-H358 cells (Homo sapiens, NCI-H358, 0.5 h) of under 100 nM. In assay [1], the “GppNHp-KRAS G12C percent of modification” value is “A (percent of modification ≥70%)”.
As for `C=CC(=O)N1C[C@H](N(C)c2nc(OC[C@@]34CCCN3C[C@H](F)C4)nc3c(F)c(-c4ccc(F)c5sc(N)c(C#N)c45)c(C(F)(F)F)cc23)C[C@H]1C` (atropisomer, axis not shown) [Compound 177], in the assay with pERK in NCI-H358 cells, the IC50 lay in the range of 100 to 1000 nM. Also, in assay [1], the “GppNHp-KRAS G12C percent of modification” value is reported as “D (percent of modification <10%)”.
For `C=CC(=O)N1CC[C@@H](N(CC)c2nc(OC[C@@H]3C[C@@H](OC)CN3C)nc3c(F)c(-c4ccc(F)c5sc(N)c(C#N)c45)c(C(F)(F)F)cc23)[C@H]1C` (single isomer, unassigned) [Compound 116], the half-maximal inhibitory concentration (IC50) in the assay on pERK in NCI-H358 cells is under 100 nM. Besides, the “GppNHp-KRAS G12C percent of modification” value in assay [1] is given as “A (percent of modification ≥70%)”.
Taken in the same sequence, the figures for `C=CC(=O)N1CC[C@@H](N(CC)c2nc(OC[C@@H]3C[C@@H](OC)CN3C)nc3c(F)c(-c4ccc(F)c5sc(N)c(C#N)c45)c(C(F)(F)F)cc23)[C@H]1C` (single isomer, unassigned) [Compound 117] were over 1000 nM and “D (percent of modification <10%)”.
`C=CC(=O)N1CC[C@@H](N(C)c2nc(OC[C@@H]3C[C@@H](OC)CN3C)nc3c(F)c(-c4ccc(F)c5sc(N)c(C#N)c45)c(C(F)(F)F)cc23)[C@H]1C` (single isomer, unassigned) [Compound 172] came in with an IC50 in the assay on pERK in NCI-H358 cells (Homo sapiens, NCI-H358, 0.5 h) of under 100 nM. For the same compound, in assay [1], the “GppNHp-KRAS G12C percent of modification” value is given as “A (percent of modification ≥70%)”.
`C=CC(=O)N1CC[C@@H](N(C)c2nc(OC[C@H]3C[C@@H](OC)CN3C)nc3c(F)c(-c4ccc(F)c5sc(N)c(C#N)c45)c(C(F)(F)F)cc23)[C@H]1C` (single isomer, unassigned) [Compound 173] displayed a 50% inhibitory concentration (IC50) with pERK in NCI-H358 cells (Homo sapiens, NCI-H358, 0.5 h) of under 100 nM. Moreover, the “GppNHp-KRAS G12C percent of modification” value in assay [1] was “A (percent of modification ≥70%)”.
`C=CC(=O)N1CC[C@@H](N(C)c2nc(OC[C@@H]3C[C@@H](OC)CN3C)nc3c(F)c(-c4ccc(F)c5sc(N)c(C#N)c45)c(C(F)(F)F)cc23)[C@H]1C` (single isomer, unassigned) [Compound 174] came in with an IC50 in the assay with pERK in NCI-H358 cells of 100 to 1000 nM. Moreover, in assay [1], the “GppNHp-KRAS G12C percent of modification” value is listed as “D (percent of modification <10%)”.
In the case of `C=CC(=O)N1CC[C@@H](N(C)c2nc(OC[C@H]3C[C@@H](OC)CN3C)nc3c(F)c(-c4ccc(F)c5sc(N)c(C#N)c45)c(C(F)(F)F)cc23)[C@H]1C` (single isomer, unassigned) [Compound 175], in the assay on pERK in NCI-H358 cells, the IC50 was in the range of 100 to 1000 nM. Further, the “GppNHp-KRAS G12C percent of modification” value in assay [1] is given as “D (percent of modification <10%)”.
`C=CC(=O)N1CC[C@@H](N(C)c2nc(OC[C@@]34CCCN3C[C@H](F)C4)nc3c(F)c(-c4ccc(F)c5sc(N)c(C#N)c45)ccc23)[C@H]1CC` [Compound 4] gave an IC50 with pERK in NCI-H358 cells (Homo sapiens, NCI-H358, 0.5 h) of under 100 nM. In addition, the “GppNHp-KRAS G12C percent of modification” value in assay [1] is “A (percent of modification ≥70%)”.
In the assay on pERK in NCI-H358 cells (Homo sapiens, NCI-H358, 0.5 h), `C=CC(=O)N1CCC(N(C)c2nc(OC[C@@]34CCCN3C[C@H](F)C4)nc3cc(-c4ccc(F)c5sc(N)c(C#N)c45)c(C#N)cc23)[C@H]1CC` (some centres unmarked) [Compound 7] came in with a half-inhibitory concentration (IC50) of under 100 nM. For the same compound, the “GppNHp-KRAS G12C percent of modification” value in assay [1] is on record as “A (percent of modification ≥70%)”.
The matching figures for `C=CC(=O)N1CCC(N(CC)c2nc(OC[C@@]34CCCN3C[C@H](F)C4)nc3c(F)c(-c4ccc(F)c5sc(N)c(C#N)c45)c(C(F)(F)F)cc23)[C@H]1CC` (some centres unmarked) [Compound 8]: under 100 nM and “C (10%≤percent of modification <50%)”.
Taken in the same sequence, the figures for `C=CC(=O)N1CCC(N(C)c2nc(OC[C@@H]3CCCN3C)nc3c(F)c(-c4nc(N)cc(C)c4C(F)(F)F)c(Cl)cc23)[C@H]1C` (some centres unmarked) [Compound 9] were 100 to 1000 nM and “C (10%≤percent of modification <50%)”.
Turning to `C=CC(=O)N1CCC(N(C)c2nc(OC[C@@]34CCCN3C[C@H](F)C4)nc3c(F)c(-c4nc(N)cc(C)c4C(F)(F)F)c(Cl)cc23)[C@H]1C` (some centres unmarked) [Compound 10], the IC50 in the assay with pERK in NCI-H358 cells (Homo sapiens, NCI-H358, 0.5 h) is under 100 nM. Also, the “GppNHp-KRAS G12C percent of modification” value in assay [1] is “B (50≤percent of modification <70%)”.
Taken in the same sequence, the figures for `C=CC(=O)N1CCC(N(CC)c2nc(OC[C@@]34CCCN3C[C@H](F)C4)nc3c(F)c(-c4ccc(F)c5sc(N)c(C#N)c45)ccc23)[C@H]1CC` (some centres unmarked) [Compound 11] were 100 to 1000 nM and “A (percent of modification ≥70%)”.
The matching figures for `C=CC(=O)N1CCC(N(CC)c2nc(OC[C@@]34CCCN3C[C@H](F)C4)nc3c(F)c(-c4ccc(F)c5sc(N)c(C#N)c45)c(Cl)cc23)[C@H]1CC` (some centres unmarked) [Compound 12]: under 100 nM and “C (10%≤percent of modification <50%)”.
`C=CC(=O)N1CCC(N(CC)c2nc(OC[C@@]34CCCN3C[C@H](F)C4)nc3cc(-c4ccc(F)c5sc(N)c(C#N)c45)c(C#N)cc23)[C@H]1CC` (some centres unmarked) [Compound 14] registered an IC50 in the assay on pERK in NCI-H358 cells (Homo sapiens, NCI-H358, 0.5 h) of 100 to 1000 nM. Also, the “GppNHp-KRAS G12C percent of modification” value in assay [1] was “A (percent of modification ≥70%)”.
